Test results as given in the NIST ThermoML archive (doi:10.1016/j.jct.2018.08.013).
“And” between values parts separate entries of the source, which are not always exact repeats. Identical values can stand only once.

Key:
[1] = xn = mol fraction of the nth substance listed; details: 298 K; 100 kPa; Crystal of intercomponent compound 1; X-ray diffraction; x2 = 0.451
[2] = specific heat capacity at constant pressure; xn = mol fraction of the nth substance listed; details: 100 kPa, Crystal of intercomponent compound 1, x2 = 0.451

[S] [sulfur] + [In]
Details	mass density [kg/m3]
[1]	5211

[2]
Details	specific heat capacity
14.16 K, relaxation calorimetry	10.46 J/K/kg
14.18 K, relaxation calorimetry	10.51 J/K/kg
16.17 K, relaxation calorimetry	15.52 J/K/kg
16.18 K, relaxation calorimetry	15.54 J/K/kg
16.19 K, relaxation calorimetry	15.59 J/K/kg
18.2 K, relaxation calorimetry	21.32 J/K/kg and 21.36 J/K/kg
20.21 K, relaxation calorimetry	27.47 J/K/kg and 27.51 J/K/kg
20.22 K, relaxation calorimetry	27.57 J/K/kg
22.23 K, relaxation calorimetry	33.81 J/K/kg and 33.8 J/K/kg
22.24 K, relaxation calorimetry	33.85 J/K/kg
24.25 K, relaxation calorimetry	40.26 J/K/kg and 40.2 J/K/kg
24.26 K, relaxation calorimetry	40.28 J/K/kg
26.26 K, relaxation calorimetry	46.66 J/K/kg and 46.68 J/K/kg
26.27 K, relaxation calorimetry	46.58 J/K/kg
28.28 K, relaxation calorimetry	52.75 J/K/kg and 52.77 J/K/kg and 52.81 J/K/kg
30.3 K, relaxation calorimetry	58.62 J/K/kg and 58.63 J/K/kg
30.31 K, relaxation calorimetry	58.71 J/K/kg
35.34 K, relaxation calorimetry	72.92 J/K/kg
35.36 K, relaxation calorimetry	72.92 J/K/kg
40.38 K, relaxation calorimetry	85.85 J/K/kg
45.42 K, relaxation calorimetry	97.7 J/K/kg
45.43 K, relaxation calorimetry	97.63 J/K/kg
45.44 K, relaxation calorimetry	97.63 J/K/kg
50.46 K, relaxation calorimetry	109.27 J/K/kg and 109.41 J/K/kg
50.48 K, relaxation calorimetry	109.27 J/K/kg
55.5 K, relaxation calorimetry	120.03 J/K/kg and 120.1 J/K/kg
55.51 K, relaxation calorimetry	120.17 J/K/kg
60.54 K, relaxation calorimetry	130.38 J/K/kg and 130.24 J/K/kg
65.58 K, relaxation calorimetry	140.8 J/K/kg and 140.86 J/K/kg
65.59 K, relaxation calorimetry	140.8 J/K/kg
70.62 K, relaxation calorimetry	151.01 J/K/kg and 151.08 J/K/kg
70.64 K, relaxation calorimetry	150.94 J/K/kg
75.66 K, relaxation calorimetry	160.88 J/K/kg and 160.47 J/K/kg and 160.68 J/K/kg
80.69 K, relaxation calorimetry	170.82 J/K/kg and 170.68 J/K/kg and 170.62 J/K/kg
85.73 K, relaxation calorimetry	180.22 J/K/kg and 180.15 J/K/kg and 179.74 J/K/kg
90.75 K, relaxation calorimetry	189.47 J/K/kg
90.77 K, relaxation calorimetry	189.13 J/K/kg and 188.59 J/K/kg
95.78 K, relaxation calorimetry	197.58 J/K/kg
95.79 K, relaxation calorimetry	197.17 J/K/kg and 197.1 J/K/kg
100.82 K, relaxation calorimetry	204.93 J/K/kg
100.83 K, relaxation calorimetry	204.59 J/K/kg
100.92 K, relaxation calorimetry	204.18 J/K/kg
105.86 K, relaxation calorimetry	212.83 J/K/kg
105.87 K, relaxation calorimetry	213.24 J/K/kg and 212.76 J/K/kg
113.82 K, relaxation calorimetry	223.18 J/K/kg and 223.24 J/K/kg and 222.9 J/K/kg
121.72 K, relaxation calorimetry	233.18 J/K/kg
121.75 K, relaxation calorimetry	233.18 J/K/kg
121.76 K, relaxation calorimetry	233.12 J/K/kg
129.68 K, relaxation calorimetry	241.97 J/K/kg
129.69 K, relaxation calorimetry	242.31 J/K/kg and 241.97 J/K/kg
137.6 K, relaxation calorimetry	249.86 J/K/kg
137.62 K, relaxation calorimetry	250 J/K/kg
145.51 K, relaxation calorimetry	257.22 J/K/kg
145.55 K, relaxation calorimetry	257.15 J/K/kg and 256.88 J/K/kg
153.44 K, relaxation calorimetry	264.09 J/K/kg
153.45 K, relaxation calorimetry	264.23 J/K/kg
153.46 K, relaxation calorimetry	264.03 J/K/kg
161.36 K, relaxation calorimetry	269.88 J/K/kg
161.38 K, relaxation calorimetry	270.02 J/K/kg
161.39 K, relaxation calorimetry	270.08 J/K/kg
169.28 K, relaxation calorimetry	275.6 J/K/kg
169.31 K, relaxation calorimetry	275.74 J/K/kg
169.32 K, relaxation calorimetry	275.46 J/K/kg
177.2 K, relaxation calorimetry	280.36 J/K/kg
177.24 K, relaxation calorimetry	280.23 J/K/kg and 280.3 J/K/kg
185.14 K, relaxation calorimetry	284.52 J/K/kg
185.17 K, relaxation calorimetry	284.79 J/K/kg and 284.86 J/K/kg
193.05 K, relaxation calorimetry	288.4 J/K/kg
193.08 K, relaxation calorimetry	288.74 J/K/kg
193.09 K, relaxation calorimetry	289.08 J/K/kg
200.97 K, relaxation calorimetry	292.69 J/K/kg
201 K, relaxation calorimetry	292.89 J/K/kg
201.01 K, relaxation calorimetry	293.03 J/K/kg
208.88 K, relaxation calorimetry	296.02 J/K/kg
208.92 K, relaxation calorimetry	295.96 J/K/kg and 296.16 J/K/kg
216.78 K, relaxation calorimetry	299.56 J/K/kg
216.82 K, relaxation calorimetry	299.7 J/K/kg
216.83 K, relaxation calorimetry	299.7 J/K/kg
224.7 K, relaxation calorimetry	302.56 J/K/kg
224.74 K, relaxation calorimetry	303.1 J/K/kg
224.75 K, relaxation calorimetry	302.7 J/K/kg
232.6 K, relaxation calorimetry	305.01 J/K/kg
232.66 K, relaxation calorimetry	305.01 J/K/kg and 305.22 J/K/kg
240.51 K, relaxation calorimetry	306.71 J/K/kg
240.54 K, relaxation calorimetry	307.67 J/K/kg and 307.53 J/K/kg
248.4 K, relaxation calorimetry	309.84 J/K/kg
248.45 K, relaxation calorimetry	310.12 J/K/kg
248.48 K, relaxation calorimetry	308.89 J/K/kg
256.34 K, relaxation calorimetry	310.59 J/K/kg
256.4 K, relaxation calorimetry	310.73 J/K/kg and 310.66 J/K/kg
262.24 K, Extra sensitive DSC	315.9 J/K/kg
264.24 K, relaxation calorimetry	312.43 J/K/kg
264.3 K, relaxation calorimetry	312.98 J/K/kg
264.31 K, relaxation calorimetry	312.98 J/K/kg
265 K, Extra sensitive DSC	316.72 J/K/kg
270 K, Extra sensitive DSC	317.74 J/K/kg
275 K, Extra sensitive DSC	319.31 J/K/kg
280 K, Extra sensitive DSC	320.94 J/K/kg
285 K, Extra sensitive DSC	322.44 J/K/kg
290 K, Extra sensitive DSC	323.94 J/K/kg
295 K, Extra sensitive DSC	325.44 J/K/kg
300 K, Extra sensitive DSC	326.59 J/K/kg
305 K, Extra sensitive DSC	328.02 J/K/kg
310 K, Extra sensitive DSC	329.18 J/K/kg
315 K, Extra sensitive DSC	329.93 J/K/kg
320 K, Extra sensitive DSC	330.54 J/K/kg
325 K, Extra sensitive DSC	331.29 J/K/kg
330 K, Extra sensitive DSC	332.31 J/K/kg
335 K, Extra sensitive DSC	333.13 J/K/kg
337.86 K, Extra sensitive DSC	333.4 J/K/kg
340.38 K, Extra sensitive DSC	332.92 J/K/kg
343.85 K, Extra sensitive DSC	333.47 J/K/kg
345.58 K, Extra sensitive DSC	333.74 J/K/kg
348.19 K, Extra sensitive DSC	335.31 J/K/kg
350.79 K, Extra sensitive DSC	335.51 J/K/kg
353.39 K, Extra sensitive DSC	335.99 J/K/kg
355.13 K, Extra sensitive DSC	336.53 J/K/kg
356 K, Extra sensitive DSC	335.78 J/K/kg
358.6 K, Extra sensitive DSC	336.4 J/K/kg
